Values quoted from earlier work, collected in patent publication US5084277A, “Vaginal progesterone tablet” (priority 1990, dated 1992).

Tests used:
[1] = not given; remark: listed apart in the source

For CC(=O)[C@H]1CC[C@H]2[C@@H]3CCC4=CC(=O)CC[C@]4(C)[C@H]3CC[C@]12C [progesterone, pregn-4-ene-3,20-dione], the “Plasma half-life of endogenous progesterone” value (endogenous) is listed as “a few minutes”, the “Storage of progesterone in body fat” value (in vivo) is listed as “A small amount of progesterone is stored in body fat” and the “Time within which all exogenous progesterone is metabolized” value (suggested by Myers et al.) is listed as ≤ 24 h. The “Tolerability of parenteral administration” value ([1]; deep intramuscular injections) was “often very painful and irritating at the site of injection”, the “Serum levels after oral administration” value ([1]; in vivo, po) was “significant but highly variable serum levels” and the “Absorption by the rectal route” value ([1]; rectal) was “highly variable”.
